Reference: US20090275515A1, “2-HYDROXY-2-PHENYLTHIOPHENYLPROPIONAMIDES AS ANDROGEN RECEPTOR MODULATORS” (priority 2006, published 2009)

Experiment: biochemical assays (not further specified)
Settings: compound coupled from the second-peak acid 5-4 (RT=21 min)

## O=C(NCc1cc(C(F)(F)F)ccn1)[C@](O)(c1ccccc1)C(F)(F)C(F)(F)F [Example 7, (2R)-3,3,4,4,4-Pentafluoro-2-hydroxy-2-phenyl-N-(4-trifluoromethyl-pyridin-2-ylmethyl)-butyramide]
  activity in the biochemical assays: active
